Measurements as given in US12180307B2, “Interleukin-13 binding cyclic oligopeptides and methods of use thereof” (B.A.I. LABORATORIES, LLC, priority 2022, dated 2024).
Where “and” joins values, the source holds several entries; their conditions need not be identical. Equal values may be shown once. Square brackets hold non-standard residues; d marks the D form. Peptide text beside a SMILES is read from it.

Key:
[1] = molecular target: Human IL-13 (Homo sapiens, UniProt P35225); experiment: Surface plasmon resonance (SPR) binding assay, BIAcore 8K plus, immobilized Fc-tagged IL-13; details: 25° C., human IL-13 with Fc-tag immobilized on CM5 chip, read-out: Binding Affinity (KD) for IL-13
Chain of Human IL-13 (P35225 25-146): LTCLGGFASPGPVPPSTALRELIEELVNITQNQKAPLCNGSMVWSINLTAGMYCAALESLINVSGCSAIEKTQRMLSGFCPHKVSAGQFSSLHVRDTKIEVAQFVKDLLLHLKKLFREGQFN
Description: A SPR assay was conducted to determine the binding affinity of the cyclic oligopeptides generated in Example 1 for IL-13 using a BIAcore 8K plus instrument (GE Healthcare). Human IL-13 with an Fc-tag was immobilized onto the surfaces of Series S Sensor CM5 (GE Healthcare) chips in the range of 5000 resonance units (RU). The binding kinetics were performed at 25° C. with a flow rate of 30 μL/min. The cyclic oligopeptides were analyzed in running buffer comprising 20 mM PBS, 2.7 mM KCl, […], 0.0500 Surfactant P20, pH 7.4, 1% DMSO, starting at 100 μM with gradient of ten two-fold dilutions using solvent correction mode.
FIGS. 2C, 3C, 4C, 5C, 6C, 7C, 8C, 9C, 10C, 11C, and 12C provide SPR response curves for the cyclic oligopeptides generated in Example 1, wherein the x-axis represents time of reaction and y-axis represents altitude of response (Response Units).

[2] = Skin permeability, Franz Cell diffusion cell with artificial skin, Transdermal Diffusion Tester, BCA assay; assay type: in vitro ADME; details: for Average Permeation Rate After 24 Hours (%) / Average Permeation Rate After 1 Hour (%): 32° C., 1.0 mg/mL in PBS; for Papp at 1 h, 1 mg/mL / Average Permeation Rate After 1 Hour (%): after 1 hour; for Papp at 1 h, 1 mg/mL: read-out: Average Permeability Coefficient (Kp) After 1 hour (converted)
Description: As used herein, the term “skin permeation rate” of a cyclic oligopeptide is measured using artificial skin (Start M, Merck), and refers to the percentage of the cyclic oligopeptide that penetrate the artificial skin after certain amount of time. For example, if 60% of the total amount of a cyclic oligopeptide of this disclosure has penetrated the artificial skin after 24 hours, then the skin permeation rate of the cyclic oligopeptide is 60% after 24 hours.
As used herein, the term “skin permeability coefficient (Kp)” refers to the rate at which the cyclic oligopeptide penetrates the skin, as measured using artificial skin (Start M, Merck). In some embodiments, permeability coefficient (Kp)(cm/hr) is calculated with the following equation:
[formula] wherein Q(mg) refers to the total amount of cyclic oligopeptide that pass through the artificial skin within a certain amount of time; A(cm^2) refers to the internal cross-section area of the artificial skin in a diffusion cell; T(hr) refers to the total amount of time of cyclic oligopeptide permeation; and ΔC(mg/mL) refers to the concentration difference of the cyclic oligopeptide between the two sides of the artificial skin. In some embodiments, the diffusion cell is a Franz Cell.
Skin permeability of the cyclic oligopeptides generated in Example 1 was measured using Transdermal Diffusion Tester (TK-12D, Shanghai Kai Kai Industrial Co Ltd) and artificial skin (Start M, Merck). Three parallel experimental groups were set up for each sample. The skin permeability of cyclic oligopeptides was evaluated by the following steps: • 1) 2.0 mg cyclic oligopeptide was weighed and dissolved in 100 μL DMSO. Three parallel experimental groups were set up for each cyclic oligopeptide. The cyclic oligopeptide-containing solution was then slowly added dropwise to 1900 μL 1×PBS solution and mixed evenly to prepare a PBS solution with a final concentration of 1.0 mg/mL cyclic polypeptide. • 2) A magnetron was inserted into a Franz Cell diffusion cell, and an artificial skin was sandwiched in the middle of the diffusion cell with the smooth side of the artificial skin facing up. The diffusion cell was then fixed with clamps after assembly. • 3) 7.75 ml 1×PBS solution were then added to the diffusion cell without generating bubbles in the diffusion cell. The sampling port of the diffusion cell was then sealed with parafilm to reduce evaporation. • 4) The temperature of a Transdermal Diffusion Tester was then set to 32° C., and the magneton speed was set to 180 r/min. • 5) The assembled diffusion cell was then put into the Transdermal Diffusion Tester and preheated for 5-10 mins. • 6) 400 μL of 1.0 mg/mL cyclic oligopeptide solution prepared in step 1) was then added to the upper chamber of the diffusion cell, making it evenly dispersed on the surface of the artificial skin without air bubbles. The top port of the diffusion cell was then covered with parafilm to reduce evaporation. • 7) Starting from the time of adding the cyclic oligopeptide solution, samples of about 0.5 mL of the receiving solution were taken at six time points, 1 h, 2 h, 4 h, 8 h, 12 h and 24 h, using a plastic dropper to take out the samples from the sampling port of the diffusion cell. 0.5 mL of 1×PBS solution was added into the diffusion cell to restore the initial volume of the receiving solution. When sampling, the diffusion cell was tilted appropriately to avoid the generation of bubbles. The samples were then numbered and store at −20° C. • 8) A BCA Assay (Micro BCA Protein Assay Kit, Thermo Scientific) was conducted to measure the concentration of cyclic oligopeptide in samples obtained in step 7) (Actual Concentration of the cyclic oligopeptide at the particular time point). Three parallel groups were used. The weight of cyclic oligopeptide in each sample obtained in step 7) equals to Actual Concentration×0.5 mL. • 9) Permeation rate of each cyclic oligopeptide at each time point was calculated according to the following equation: […]

[3] = FIG. 8D
Description: Table printed on a drawing sheet, FIG. 8D
The patent's description of the figure: FIG. 8A provides the MS spectrum for Compound 7. FIG. 8B provides the HPLC chromatogram for Compound 7. FIG. 8C provides SPR assay curves showing the binding affinity of Compound 7 for IL-13, the x-axis represents time of reaction and y-axis represents altitude of response (Response Units). FIG. 8D illustrates skin permeation rate of Compound 7 for up to 24 hours. FIG. 8E illustrates average permeability coefficient (Kp) of Compound 7 for 1, 2, 4, 8, 12 and 24 hours.
First reader's note: The substance name Compound 7 comes from the legend of the plot printed above the table; the values are skin permeation over time in three replicates with their average and range.

[4] = FIG. 9D
Description: Table printed on a drawing sheet, FIG. 9D
The patent's description of the figure: FIG. 9A provides the MS spectrum for Compound 8. FIG. 9B provides the HPLC chromatogram for Compound 8. FIG. 9C provides SPR assay curves showing the binding affinity of Compound 8 for IL-13, the x-axis represents time of reaction and y-axis represents altitude of response (Response Units). FIG. 9D illustrates skin permeation rate of Compound 8 for up to 24 hours. FIG. 9E illustrates average permeability coefficient (Kp) of Compound 8 for 1, 2, 4, 8, 12 and 24 hours.
First reader's note: The substance name is taken from the legend of the plot printed above the table in the same figure; the values are three replicate permeation rates, their average and their range.

[5] = FIG. 10D
Description: Table printed on a drawing sheet, FIG. 10D
The patent's description of the figure: FIG. 10A provides the MS spectrum for Compound 9. FIG. 10B provides the HPLC chromatogram for Compound 9. FIG. 10C provides SPR assay curves showing the binding affinity of Compound 9 for IL-13, the x-axis represents time of reaction and y-axis represents altitude of response (Response Units). FIG. 10D illustrates skin permeation rate of Compound 9 for up to 24 hours. FIG. 10E illustrates average permeability coefficient (Kp) of Compound 9 for 1, 2, 4, 8, 12 and 24 hours.
First reader's note: The substance name is taken from the legend of the plot printed above the table; three replicate permeation values, their average and their range per time point.

[6] = FIG. 11D
Description: Table printed on a drawing sheet, FIG. 11D
The patent's description of the figure: FIG. 11A provides the MS spectrum for Compound 10. FIG. 11B provides the HPLC chromatogram for Compound 10. FIG. 11C provides SPR assay curves showing the binding affinity of Compound 10 for IL-13, the x-axis represents time of reaction and y-axis represents altitude of response (Response Units). FIG. 11D illustrates skin permeation rate of Compound 10 for up to 24 hours. FIG. 11E illustrates average permeability coefficient (Kp) of Compound 10 for 1, 2, 4, 8, 12 and 24 hours.
First reader's note: The substance name comes from the legend of the plot above the table; columns 2-4 are three replicate permeation measurements, followed by their average and range.

[7] = FIG. 12D
Description: Table printed on a drawing sheet, FIG. 12D
The patent's description of the figure: FIG. 12A provides the MS spectrum for Compound 11. FIG. 12B provides the HPLC chromatogram for Compound 11. FIG. 12C provides SPR assay curves showing the binding affinity of Compound 11 for IL-13, the x-axis represents time of reaction and y-axis represents altitude of response (Response Units). FIG. 12D illustrates skin permeation rate of Compound 11 for up to 24 hours. FIG. 12E illustrates average permeability coefficient (Kp) of Compound 11 for 1, 2, 4, 8, 12 and 24 hours.
First reader's note: The substance name is taken from the legend of the plot printed above the table on the same sheet; the last column is the range (max minus min) of the three replicates.

Structure (SMILES): CC(C)C[C@H]1NC(=O)[C@@H]2CCCN2C(=O)[C@@H](Cc2ccccc2)NC(=O)[C@H](CCCNC(=N)N)NC(=O)[C@H]([C@@H](C)O)NC(=O)[C@H]2CCCN2C1=O [Compound 7, Thr Arg D-Phe Pro D-Leu D-Pro] (cyclo(P[dL][dP]TR[dF]))
- Kd [1]: 85.1 µM
- Average Permeation Rate After 24 Hours (%) ([2]; after 24 hours): 38.84%
- Papp at 1 h, 1 mg/mL [2]: 15.2 ×10⁻⁶ cm/s
- Permeation Avg. (%) [3]: 28.31% and 31.36% and 33.66% and 36.74%

Structure (SMILES): CSCC[C@@H]1NC(=O)[C@H](Cc2c[nH]c3ccccc23)NC(=O)[C@@H]2CCCN2C(=O)[C@H](CCC(=O)O)NC(=O)[C@H](CCCNC(=N)N)NC(=O)[C@@H](CC(C)C)NC(=O)[C@@H]2CCCN2C1=O [Compound 8, D-Leu Arg Glu Pro Trp Met Pro] (cyclo(EPWMP[dL]R))
- Average Permeation Rate After 1 Hour (%) [2]: 12.44%
- Average Permeation Rate After 24 Hours (%) ([2]; after 24 hours): 35.20%
- Papp at 1 h, 1 mg/mL [2]: 7.39 ×10⁻⁶ cm/s
- Papp at 24 h, 1 mg/mL ([2]; after 24 hours, read-out: Average Permeability Coefficient (Kp) After 24 hours): > 0.0278 ×10⁻⁶ cm/s
- Permeation Avg. (%) [4]: 17.57% and 23.24% and 27.76% and 32.33%

Structure (SMILES): CC(C)C[C@@H]1NC(=O)[C@@H](CCCNC(=N)N)NC(=O)[C@@H]2CCCN2C(=O)[C@H](CCC(=O)O)NC(=O)[C@@H]([C@H](C)O)NC(=O)[C@H](Cc2c[nH]c3ccccc23)NC(=O)[C@@H](Cc2c[nH]c3ccccc23)NC1=O [Compound 9, D-Arg Leu D-Trp Trp D-Thr Glu Pro] (cyclo(EP[dR]L[dW]W[dT]))
- Kd [1]: 337 µM
- Papp at 1 h, 1 mg/mL [2]: 14 ×10⁻⁶ cm/s
- Permeation Avg. (%) [5]: 31.10% and 41.93% and 48.23% and 55.09%

Structure (SMILES): N=C(N)NCCC[C@@H]1NC(=O)[C@H]2CCCN2C(=O)[C@@H](Cc2c[nH]c3ccccc23)NC(=O)[C@H]2CCCN2C(=O)[C@H](CS)NC(=O)[C@H](Cc2ccc(O)cc2)NC(=O)[C@H](CC(=O)O)NC1=O [Compound 10, Arg Asp Tyr Cys D-Pro D-Trp D-Pro] (cyclo(C[dP][dW][dP]RDY))
- Kd [1]: 368 µM
- Average Permeation Rate After 1 Hour (%) [2]: 18.96%
- Papp at 1 h, 1 mg/mL [2]: 11.7 ×10⁻⁶ cm/s
- Permeation Avg. (%) [6]: 29.18% and 39.99% and 47.96% and 56.44%

Structure (SMILES): CC(C)C[C@@H]1NC(=O)[C@@H](C(C)C)NC(=O)[C@@H](Cc2c[nH]c3ccccc23)NC(=O)[C@@H](CC(C)C)NC(=O)[C@@H]2CCCN2C(=O)[C@H](C(C)C)NC(=O)[C@@H]2CCCN2C(=O)[C@H](CCCNC(=N)N)NC1=O [Compound 11, Val Pro D-Leu D-Trp D-Val Leu Arg Pro] (cyclo(LRPVP[dL][dW][dV]))
- Kd [1]: 622 µM
- Average Permeation Rate After 1 Hour (%) [2]: 11.77%
- Papp at 1 h, 1 mg/mL [2]: 7.22 ×10⁻⁶ cm/s
- Permeation Avg. (%) [7]: 15.61% and 19.18% and 21.74% and 23.90%
